From patent publication US7083982B2, “Helium-neon excitable reticulocyte dyes derivable from halolepidines” (Abbott Laboratories, priority 1996, dated 2006)

Tests used:
[1] = Absorption maximum of the dye; type: physicochemical; settings: for absorption maximum in methanol: in methanol solution
Experimental: The following table sets forth the absorption maximum in nanometers for several dyes suitable for use in this invention.
To the activated 3-ethyl-2-methylbenzothiazolium derivative obtained above (4.5 mg) was added the 7-chloro-1-methyllepidinium salt obtained above (3.8 mg) in chloroform (250 μL) to form a mixture. Then triethylamine (50 μL) was added to the mixture. The resulting mixture was stirred at reflux for 30 minutes, during which time a dark blue solution was obtained. Diethyl ether was added to the solution and the resultant suspension was centrifuged. The supernatant was discarded and the precipitate resuspended in diethyl ether and centrifuged (2 times). The dark powder absorbed maximally at 638 nm in methanol solution.

[2] = Fluorescence of dye only in CD4000 Retic Buffer, flow cytometer with helium-neon laser; type: physicochemical
Experimental: (§1) Fluorescence was determined by dissolving the dye in a buffer (“CD4000 Retic Buffer”) at neutral pH and at a final concentration of 0.5 μg/ml of test solution. The “CD4000 Retic Buffer” contained the following ingredients in the amounts indicated: The tests were run in a flow cytometer with a helium-neon laser light source. The helium-neon laser provided light at a wavelength of 630 nm. The optical system was a conventional optical system.

[3] = system: RNA; assay: Fluorescence of dye with RNA in CD4000 Retic Buffer, flow cytometer with helium-neon laser
Experimental: as §1

[4] = system: DNA; assay: Fluorescence of dye with DNA in CD4000 Retic Buffer, flow cytometer with helium-neon laser
Experimental: as §1

[5] = fluorescence relative to dye only intensity 1.0

Structure (SMILES)	Absorption maximum (nm) [1]	absorption maximum in methanol [1]	other results
CN1C=C/C(=C\C=C\c2sc3ccccc3[n+]2C)c2ccc(F)cc21 [Dye 2]	628 nm		
CN1C=C/C(=C\C=C\c2sc3ccccc3[n+]2C)c2ccc(Br)cc21 [Dye 5]	638 nm		
CN1C=C/C(=C\C=C\C2=[N+](C)c3ccc4ccccc4c3C2(C)C)c2ccc(Cl)cc21 [Dye 6]		623 nm	
CC[n+]1c(/C=C/C=C2\C=CN(C)c3cc(Cl)ccc32)sc2ccccc21 [Dye 7]	638 nm	638 nm	Emission wavelength - dye only (nm) ([2]; 0.5 μg/ml, neutral pH, 630 nm laser): 655.6 nm; Bandwidth ([2]; emission): 45; Bandwidth with RNA ([3]; emission, with RNA): 36; Enhancement with RNA [3, 5]: 39.1; Emission wavelength with RNA (nm) ([3]; with RNA, 0.5 μg/ml, neutral pH, 630 nm laser): 671.2 nm; Bandwidth with DNA ([4]; emission, with DNA): 35; Enhancement with DNA [4, 5]: 50.4; Emission wavelength with DNA (nm) ([4]; with DNA, 0.5 μg/ml, neutral pH, 630 nm laser): 661.8 nm
CN1C=C/C(=C\C=C\c2sc3ccccc3[n+]2C)c2ccc(Cl)cc21 [Dye 8]		638 nm	
CN1C=C/C(=C\C=C\c2oc3ccc4ccccc4c3[n+]2C)c2ccc(Cl)cc21 [Dye 9]	624 nm	624 nm	
